Measured values: paper PMC10147923, “Pain-causing stinging nettle toxins target TMEM233 to modulate NaV1.7 function” (Nature Communications, 2023)
Values joined by “and” are separate entries in the source; they are usually repeats but may differ in a detail not shown here. Equal values may be shown once. Read-outs that look alike come from different tables or passages of the source. Positions of bridges follow the written chain, without caps; N, C: chain ends. Residues, ends and D or L forms follow the SMILES beside them.

Columns and labels:
[1] = test system: NaV1.7 endogenously expressed in TE-671 cells; assay: Persistent NaV current, TE-671 cells (automated patch clamp); type: cell-based
[2] = test system: NaV1.7Advill knockout mice; assay: Nocifensive behaviors after intraplantar injection, NaV1.7Advill mice; type: in vivo, mouse; details: i.pl. ExTxA 10 nM
Source text: Tmem233^Cre animals were generated and genotyped as previously described, with a Kozak-Cre-pA cassette replacing the ATG start codon of the murine Tmem233 gene to produce a functional knockout in homozygous animals. NaV1.7^Advill mice lacking functional NaV1.7 in all sensory neurons were generated and genotyped as previously described[33] by crossing Advillin-Cre mice with floxed Scn9a animals in which loxP sites were inserted in introns flanking exons 14 and 15[34],[35]. NaV1.9^−/− mice and NaV1.8^Cre/Cre mice, in which Cre recombinase substitutes the translational start-site of NaV1.8, were generated and sequenced as previously described[34],[36],[37].
Nocifensive responses to intraplantar administration of ExTxA (5–10 nM) were assessed as previously described. In brief, ExTxA was diluted in sterile saline/0.1% BSA and administered by an intraplantar injection (40 μL) into a single hind paw of Tmem233^Cre/Cre, NaV1.7^Advill and wild-type littermate controls. Pain behaviors, consisting of paw licks or flinches, were counted from video recordings by a blinded investigator for up to 60 min following injection.

[3] = test system: hNaV1.2; assay: Persistent current, HEK293-hNaV1.2/β1; type: cell-based, human; details: ExTxA 1 µM; individual cells
[4] = test system: HEK293-NaV1.7 cells; type: cell-based, human; details: ExTxA 1 µM; for ΔF/F in NaV1.7 HEK293: mean, n = 3
Experimental: HEK293-NaV1.7 cells were transfected with TMEM233, CRELD1, LMAN2L, MMGT1, RNF121 and STT3B and co-transfected with five plasmids coding for the Glycosylphosphatidylinositol (GPI) complex (GPAA1, PIGK, PIGS, PIGU, PIGT) using Lipofectamine 2000. After 24 h, transfected cells were harvested and plated at a density of 10,000–15,000 cells per well on black-walled 384-well imaging plates. Plated cells were cultured for a further 24 h at 37 °C and 5% CO2. FLIPR (Fluorescent Imaging Plate Reader) Red membrane potential assay dye (Molecular Devices, California, USA) was diluted in physiological salt solution according to the manufacturer’s instructions (PSS, in mM: NaCl 140, glucose 11.5, HEPES 10, KCl 5.9, MgCl2 1.4, NaH2PO4 1.2, NaHCO3 5, CaCl2 1.8, pH 7.4). Growth medium was removed from the plate and replaced with 20 µL of FLIPR Red membrane potential assay dye per well and incubated in the dark at 37 °C for 60 min. […] Fluorescence responses to ExTxA were computed as the maximum change in fluorescence over baseline (ΔF/F0) using ScreenWorks (Molecular Devices, Version 5.1.2.94).

[5] = molecular target: NaV1.7/TMEM233 (Homo sapiens, UniProt B4DJY2+Q15858); type: cell-based
[6] = test system: DRG neurons from Tmem233Cre/Cre knockout mice; assay: Calcium imaging, Tmem233Cre/Cre DRG neurons; type: cell-based, mouse
Experimental: DRG from all spinal levels were isolated from male and female mice (wild-type C57BL/6 J, Tmem233^Cre/Cre, NaV1.8^Cre/Cre, NaV1.9^−/− or littermate controls) as previously described[36],[38],[39]. For Ca^2+ imaging experiments, DRG neurons were dissociated following incubation with 1% collagenase type IV (Worthington, New Jersey, USA) for 1.5 h (37 °C, 5% CO2) and 2.5% trypsin (Sigma-Aldrich, Montana, USA) for 15 min and resuspended in Dulbecco’s modified Eagle’s medium (DMEM) (Sigma-Aldrich, New South Wales, Australia) supplemented with 10% fetal bovine serum (FBS) (Thermofisher, Massachusetts, USA) and penicillin/streptomycin (Thermofisher, Massachusetts, USA). Following plating in 96-well poly-D-lysine–coated culture plates, isolated neurons were incubated for 24 h at 37 °C with 5% CO2 prior to imaging.
Dissociated DRG neurons from Tmem233^Cre/Cre and C57BL/6 mice were plated on PDL-coated 96-well black-walled imaging plates and loaded with Fluo-4 AM calcium indicator (5 μM) (Invitrogen, Massachusetts, USA) for 1 h in culture medium. Cells were washed with Hanks’ balanced salt solution containing 20 mM HEPES and then transferred to the recording chamber of a Nikon Ti-E Deconvolution inverted microscope equipped with a Lumencor Spectra LED light source. Fluorescence images (excitation, 485 nm; emission, 521 nm) were acquired at 1 frame per second using a ×20 objective. Following the recording of baseline fluorescence (20 s), cells were consecutively exposed to buffer control (0.1% BSA, t = 30 s), ExTxA (10 nM, t = 60 s), and 30 mM KCl (30 mM, t = 210 s). […] Cells responding to buffer control were excluded from analysis.

[7] = test system: TE-671 cells

SMILES: CC[C@H](C)[C@@H]1NC(=O)[C@H](CCCNC(=N)N)NC(=O)[C@H](Cc2ccccc2)NC(=O)[C@H](CC(C)C)NC(=O)[C@H](CO)NC(=O)[C@@H]2CSSC[C@@H]3NC(=O)[C@H]([C@@H](C)O)NC(=O)[C@H](CSSC[C@H](NC(=O)[C@H](CCCNC(=N)N)NC(=O)[C@@H]4CCCN4C(=O)[C@@H](N)CC(C)C)C(=O)N[C@@H](CC(=O)O)C(=O)N[C@@H](CO)C(=O)N4CCC[C@H]4C(=O)N[C@@H](Cc4ccccc4)C(=O)N2)NC(=O)[C@H](CCCCN)NC(=O)[C@H](CC(=O)O)NC(=O)CNC(=O)[C@H](CSSC[C@@H](C(=O)N[C@H](C(=O)N2CCC[C@H]2C(=O)N[C@@H](CC(=O)O)C(=O)N[C@H](C(=O)O)C(C)C)C(C)C)NC(=O)[C@H](CC(C)C)NC(=O)CNC(=O)[C@H](Cc2ccccc2)NC(=O)[C@H]([C@@H](C)CC)NC(=O)[C@@H]2CCCN2C(=O)[C@H](CC(C)C)NC(=O)[C@@H]2CCCN2C(=O)[C@H](C(C)C)NC3=O)NC(=O)[C@H](CC(C)C)NC(=O)CNC1=O [ExTxA, excelsatoxin A] (H-LPRCDSPFCSLFRIGLCGDKCTCVPLPIFGLCVPDV-OH; disulfide 4-21, 9-23, 17-32)
- ExTxA-induced persistent current (I40 ms/Ipeak; nA) [1]: 0.8135
- persistent current (I40 ms/Ipeak) [1]: 0.8735 and 0.8209 and 0.7837 and 0.8022 and 0.7553 and 0.8064 and 0.8529
- Mean Diff. of persistent current, Buffer vs. ExTxA ([1]; ExTxA 100 nM): -0.2502
- TE-671 persistent current (I40 ms/Ipeak) ([1]; ExTxA 100 nM, individual cells): 0.226 and 0.2237 and 0.255 and 0.3482 and 0.2794 and 0.2574 and 0.2313 and 0.3524
- TE-671 persistent current (I40 ms/Ipeak) ([1]; ExTxA 100 nM, mean, n = 8): 0.272 ± 0.018 and 0.2717
- persistent current (I40 ms/Ipeak) ([1]; ExTxA 1 µM, individual cells): 0.6558 and 0.8078 and 0.6143 and 0.6966 and 0.7266 and 0.5751 and 0.7653 and 0.7674 and 0.8038 and 0.7341 and 0.767
- Δ persistent current (I40 ms/Ipeak; buffer cf. ExTxA) ([1]; ExTxA 1 µM, mean): 0.719 ± 0.0230 and 0.7194
- ExTxA-induced persistent current (I40 ms/Ipeak; nA) ([1]; ExTxA 1 µM, wildtype TE-671 (Fig. 3d), mean, n = 7): 0.81 ± 0.015
- Difference between means (B - A), wildtype minus Scn9a-/- [2]: 279.3 ± 22.82
- nocifensive responses in knockout mice [2]: abolished
- cumulative flinches (60 min) ([2]; 40 μL, NaV1.7Advill, mean, n = 4): 40.0 ± 6.5 and 40
- cumulative flinches (60 min) ([2]; NaV1.7Advill (Scn9a-/-), individual animals): 32 and 43 and 57 and 28
- persistent current (I40 ms/Ipeak) [3]: -0.01884 and -0.01572 and 0.004985 and 0.03852 and -0.01184 and -0.02181 and 0.005193 and -0.01291 and 0.01563 and -0.00224 and -0.00414
- ΔF/F in NaV1.7 HEK293 ([4]; Control (untransfected NaV1.7)): 0.016 ± 0.013 and 0.01598
- DF/F ([4]; GPAA1+PIG K, S, T, U, replicate 1): -0.0084
- DF/F ([4]; GPAA1+PIG K, S, T, U, replicate 2): -0.00023
- DF/F ([4]; GPAA1+PIG K, S, T, U, replicate 3): -0.01147
- ΔF/F in NaV1.7 HEK293 ([4]; Lman2L): 0.014 ± 0.0048 and 0.01413
- DF/F ([4]; Lman2L, replicate 1): 0.02361
- DF/F ([4]; Lman2L, replicate 2): 0.01087
- DF/F ([4]; Lman2L, replicate 3): 0.007914
- DF/F ([4]; Mmgt1, replicate 1): -0.00761
- DF/F ([4]; Mmgt1, replicate 2): -0.00711
- DF/F ([4]; Mmgt1, replicate 3): -0.00296
- DF/F ([4]; RNF121, replicate 1): -0.01721
- DF/F ([4]; RNF121, replicate 2): -0.01119
- DF/F ([4]; RNF121, replicate 3): 0.007423
- ΔF/F in NaV1.7 HEK293 ([4]; Stt3b): 0.013 ± 0.00098 and 0.01262
- DF/F ([4]; Stt3b, replicate 1): 0.01077
- DF/F ([4]; Stt3b, replicate 2): 0.013
- DF/F ([4]; Stt3b, replicate 3): 0.01408
- DF/F ([4]; Untransfected Nav1.7, replicate 1): 0.03099
- DF/F ([4]; Untransfected Nav1.7, replicate 2): -0.01092
- DF/F ([4]; Untransfected Nav1.7, replicate 3): 0.02788
- Best-fit parameter Bottom [5]: 0.0729
- Best-fit parameter Hill slope [5]: 1.156
- Best-fit parameter Top [5]: 0.7692
- Top [5]: 0.7845
- persistent current, Predicted (LS) mean diff. [5]: -0.5401
- potency with TMEM233 versus PRRT2 or TRARG1 [5]: significantly more potent when co-expressed with TMEM233
- effect on inactivation, toxin in extracellular solution ([5]; ExTxA 100 nM in ECS): robustly inhibited inactivation
- effect on inactivation, toxin in intracellular solution ([5]; ExTxA 100 nM in ICS): did not affect inactivation
- Difference between means (D - C), TMEM233 minus control ([5]; ExTxA 1 µM): -1468 ± 228.9 pA
- LogEC50 ([5]; Nav1.7/TMEM233, 95% CI -8.367 to -8.102, Fig 4g): -8.24
- HillSlope ([5]; Nav1.7/TMEM233, Fig 4g): 0.9284
- ExTxA-induced DRG Ca2+ responses ([6]; ExTxA 10 nM, Tmem233Cre KO, Fluo-4, >1.5-fold increase, mean ± SEM, n = 7 wells): 22.33 ± 1.942 % neurons activated
- calcium imaging response (Fig. 3f) ([6]; KO, individual values, one line each (n = 7)): 24.6269 and 21.831 and 19.2118 and 28.0374 and 12.6582 and 26.1905
- calcium imaging response (Fig. 3f), Mean ([6]; KO, mean, number of values 7, Std. Deviation 5.137, SEM 1.942): 22.33
- calcium imaging response (Fig. 3f), Median ([6]; KO, median, number of values 7): 23.77
- toxicity to TE-671 cells, ExTxA alone ([7]; ExTxA 1 µM): did not cause visible toxicity
- toxicity to TE-671 cells, with veratridine and ouabain ([7]; ExTxA 1 µM + veratridine 5 µM + ouabain 20 nM): cell death
